Data taken from patent US7138361B2, “Herbicidal heterocycles” (E. I. du Pont de Nemours and Company, priority 2000, dated 2006).

Assays:
Assay type in all cases: in vivo
Nightshade = test: Test C preemergence; conditions: Rate 250 g/ha, visual evaluation after 12 to 14 days
Sunflower = test: Test C preemergence; conditions: Rate 125 g/ha, scale 0 to 100, 0 no effect, 100 complete control
soybean (Glycine max) = test: Test C preemergence; conditions: for Plant response rating (0 to 100), Soybean: Rate 250 g/ha, visual evaluation after 12 to 14 days
How it was run: (§1)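 Response scores (0 no effect to 100 complete control) came from visual comparison with untreated controls 12 to 14 days after treatment. Preemergence application was made to seeded soil; postemergence, to plants at the 1- to 4-leaf stage.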

[1] = test system: bermudagrass (Cynodon dactylon); test: Test C preemergence; conditions: for Plant response rating (0 to 100 where 0 is no effect and 100 is complete control), Bermudagrass: Rate 250 g/ha, visual evaluation after 12 to 14 days
How it was run: as §1

[2] = test system: pigweed (Amaranthus retroflexus); test: Test C preemergence; conditions: for Plant response rating (0 to 100), Pigweed: Rate 250 g/ha, visual evaluation after 12 to 14 days
How it was run: as §1

[3] = test system: crabgrass (Digitaria sanguinalis); test: Test C preemergence; conditions: for Plant response rating (0 to 100), Crabgrass: Rate 250 g/ha, visual evaluation after 12 to 14 days
How it was run: as §1

[4] = test system: woolly cupgrass (Eriochloa villosa); test: Test C preemergence; conditions: for Plant response rating (0 to 100), Cupgrass, Woolly: Rate 250 g/ha, visual evaluation after 12 to 14 days
How it was run: as §1

[5] = test system: Surinam grass (Brachiaria decumbens); test: Test C preemergence; conditions: for Plant response rating (0 to 100), Surinam grass: Rate 250 g/ha, visual evaluation after 12 to 14 days
How it was run: as §1

[6] = test system: cocklebur (Xanthium strumarium); test: Test C preemergence
How it was run: as §1

[7] = test system: giant foxtail (Setaria faberii); test: Test C preemergence
How it was run: as §1

kochia (Kochia scoparia) = test: Test C preemergence; conditions: for Plant response rating (0 to 100), Kochia: Rate 250 g/ha, visual evaluation after 12 to 14 days
How it was run: as §1

[8] = test system: velvetleaf (Abutilon theophrasti); test: Test B preemergence
How it was run: (§2)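 Pre: seeded pots sprayed, chemical in non-phytotoxic solvent/surfactant mix. Post: plants 2–18 cm, 1–4 leaf, same formulation. Greenhouse 13–15 d; visual % control vs untreated, 0–100 scale.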

[9] = test system: pigweed (Amaranthus retroflexus); test: Test B preemergence
How it was run: as §2

[10] = test system: barnyardgrass (Echinochloa crus-galli); test: Test B preemergence
How it was run: as §2

[11] = test system: crabgrass (Digitaria sanguinalis); test: Test B preemergence
How it was run: as §2

[12] = test system: morning glory (Ipomoea hederacea); test: Test B preemergence
How it was run: as §2

[13] = test system: lambsquarters (Chenopodium album); test: Test B preemergence
How it was run: as §2

[14] = test system: Surinam grass (Brachiaria decumbens); test: Test B preemergence
How it was run: as §2

[15] = test system: cocklebur (Xanthium strumarium); test: Test B preemergence
How it was run: as §2

[16] = test system: giant foxtail (Setaria faberii); test: Test B preemergence
How it was run: as §2

corn (Zea mays) = test: Test B preemergence
How it was run: as §2

rice (Oryza saliva) = test: Test B preemergence
How it was run: as §2

[17] = Preemergence, Rate 500 g/ha, scale 0 to 100
[18] = preemergence, Rate 125 g/ha, scale 0 to 100, 0 no effect, 100 complete control
[19] = Rate 62 g/ha, scale 0 to 100, 0 no effect, 100 complete control
[20] = preemergence, Rate 250 g/ha, visual evaluation after 12 to 14 days
[21] = Preemergence, Rate 500 g/ha, scale 0 to 100, 0 no effect, 100 complete control
[22] = preemergence, Rate 125 g/ha, scale of 0 to 100 where 0 is no effect and 100 is complete control, 13 to 15 days

Compound: O=C1C(n2ccc(C3CCCCC3)n2)OCN1c1cccc(C(F)(F)F)c1 (centres unmarked) [Compound 51]
- Plant response rating (0 to 100), Nightshade (Nightshade): 0
- Plant response rating, Sunflower (Sunflower): 0
- Plant response rating, Soybean (soybean (Glycine max); [17]): 30
- Plant response rating (0 to 100), Soybean (soybean (Glycine max); preemergence): 20
- Plant response rating, Soybean (soybean (Glycine max); [18]): 0
- Plant response rating, Bermudagrass [1, 17]: 100
- Plant response rating, Bermudagrass [1, 19]: 90
- Plant response rating (0 to 100 where 0 is no effect and 100 is complete control), Bermudagrass ([1]; preemergence): 100
- Plant response rating, Bermudagrass [1, 18]: 100
- Plant response rating, Pigweed [2, 17]: 30
- Plant response rating (0 to 100), Pigweed ([2]; preemergence): 100
- Plant response rating, Pigweed [2, 18]: 0
- Plant response rating, Crabgrass [3, 17]: 100
- Plant response rating, Crabgrass [3, 19]: 70
- Plant response rating (0 to 100), Crabgrass ([3]; preemergence): 100
- Plant response rating, Crabgrass [3, 18]: 100
- Plant response rating, Cupgrass, Woolly [4, 17]: 100
- Plant response rating, Cupgrass, Woolly [4, 19]: 50
- Plant response rating (0 to 100), Cupgrass, Woolly ([4]; preemergence): 80
- Plant response rating, Cupgrass, Woolly [4, 18]: 50
- Plant response rating, Surinam grass [5, 17]: 70
- Plant response rating, Surinam grass [5, 19]: 30
- Plant response rating (0 to 100), Surinam grass ([5]; preemergence): 70
- Plant response rating, Surinam grass [5, 18]: 30
- Plant response rating, Cocklebur [6, 17]: 0
- Plant response rating, Cocklebur [6, 19]: 0
- Plant response rating (0 to 100), Cocklebur [6, 20]: 0
- Plant response rating, Cocklebur [6, 18]: 0
- Plant response rating, Foxtail, Giant [7, 17]: 100
- Plant response rating, Foxtail, Giant [7, 19]: 70
- Plant response rating (0 to 100), Foxtail, Giant [7, 20]: 100
- Plant response rating, Foxtail, Giant [7, 18]: 0
- Plant response rating, Kochia (kochia (Kochia scoparia); [17]): 80
- Plant response rating, Kochia (kochia (Kochia scoparia); [19]): 40
- Plant response rating (0 to 100), Kochia (kochia (Kochia scoparia); preemergence): 50
- Plant response rating, Kochia (kochia (Kochia scoparia); [18]): 50
- Plant response rating, Velvetleaf [8, 21]: 0
- Plant response rating, Velvetleaf [8, 22]: 0
- Plant response rating, Pigweed [9, 21]: 100
- Plant response rating, Pigweed [9, 22]: 0
- Plant response rating, Barnyardgrass [10, 21]: 80
- Plant response rating, Barnyardgrass [10, 22]: 80
- Plant response rating, Crabgrass [11, 21]: 100
- Plant response rating, Crabgrass [11, 22]: 100
- Plant response rating, Morningglory [12, 21]: 0
- Plant response rating, Morningglory [12, 22]: 0
- Plant response rating, Lambsquarters [13, 21]: 100
- Plant response rating, Lambsquarters [13, 22]: 100
- Plant response rating, Surinam grass [14, 21]: 20
- Plant response rating, Surinam grass [14, 22]: 0
- Plant response rating, Cocklebur [15, 21]: 0
- Plant response rating, Cocklebur [15, 22]: 0
- Plant response rating, Foxtail, Giant [16, 21]: 50
- Plant response rating, Foxtail, Giant [16, 22]: 0
- Plant response rating, Corn (corn (Zea mays); [21]): 0
- Plant response rating, Corn (corn (Zea mays); [22]): 0
- Plant response rating, Rice (rice (Oryza saliva); [21]): 0
- Plant response rating, Rice (rice (Oryza saliva); [22]): 0

Compound: O=C1C(n2ccc(C3CCCCC3)n2)SCN1c1cccc(C(F)(F)F)c1 (centres unmarked) [Compound 52]
- Plant response rating (0 to 100), Nightshade (Nightshade): 30
- Plant response rating, Sunflower (Sunflower): 0
- Plant response rating, Soybean (soybean (Glycine max); [17]): 60
- Plant response rating (0 to 100), Soybean (soybean (Glycine max); preemergence): 20
- Plant response rating, Soybean (soybean (Glycine max); [18]): 20
- Plant response rating, Bermudagrass [1, 17]: 100
- Plant response rating, Bermudagrass [1, 19]: 100
- Plant response rating (0 to 100 where 0 is no effect and 100 is complete control), Bermudagrass ([1]; preemergence): 100
- Plant response rating, Bermudagrass [1, 18]: 100
- Plant response rating, Pigweed [2, 17]: 100
- Plant response rating (0 to 100), Pigweed ([2]; preemergence): 30
- Plant response rating, Pigweed [2, 18]: 0
- Plant response rating, Crabgrass [3, 17]: 100
- Plant response rating, Crabgrass [3, 19]: 90
- Plant response rating (0 to 100), Crabgrass ([3]; preemergence): 100
- Plant response rating, Crabgrass [3, 18]: 100
- Plant response rating, Cupgrass, Woolly [4, 17]: 100
- Plant response rating, Cupgrass, Woolly [4, 19]: 30
- Plant response rating (0 to 100), Cupgrass, Woolly ([4]; preemergence): 60
- Plant response rating, Cupgrass, Woolly [4, 18]: 50
- Plant response rating, Surinam grass [5, 17]: 50
- Plant response rating, Surinam grass [5, 19]: 0
- Plant response rating (0 to 100), Surinam grass ([5]; preemergence): 30
- Plant response rating, Surinam grass [5, 18]: 20
- Plant response rating, Cocklebur [6, 17]: 30
- Plant response rating, Cocklebur [6, 19]: 0
- Plant response rating, Cocklebur [6, 18]: 0
- Plant response rating, Foxtail, Giant [7, 17]: 30
- Plant response rating, Foxtail, Giant [7, 19]: 60
- Plant response rating, Foxtail, Giant [7, 18]: 70
- Plant response rating, Kochia (kochia (Kochia scoparia); [17]): 60
- Plant response rating, Kochia (kochia (Kochia scoparia); [19]): 0
- Plant response rating (0 to 100), Kochia (kochia (Kochia scoparia); preemergence): 30
- Plant response rating, Kochia (kochia (Kochia scoparia); [18]): 20
- Plant response rating, Velvetleaf [8, 21]: 0
- Plant response rating, Pigweed [9, 21]: 30
- Plant response rating, Pigweed [9, 22]: 0
- Plant response rating, Barnyardgrass [10, 21]: 100
- Plant response rating, Barnyardgrass [10, 22]: 0
- Plant response rating, Crabgrass [11, 21]: 100
- Plant response rating, Crabgrass [11, 22]: 100
- Plant response rating, Morningglory [12, 21]: 0
- Plant response rating, Morningglory [12, 22]: 0
- Plant response rating, Lambsquarters [13, 21]: 100
- Plant response rating, Lambsquarters [13, 22]: 100
- Plant response rating, Surinam grass [14, 21]: 0
- Plant response rating, Surinam grass [14, 22]: 0
- Plant response rating, Cocklebur [15, 21]: 0
- Plant response rating, Cocklebur [15, 22]: 0
- Plant response rating, Foxtail, Giant [16, 21]: 100
- Plant response rating, Foxtail, Giant [16, 22]: 90
- Plant response rating, Corn (corn (Zea mays); [21]): 20
- Plant response rating, Corn (corn (Zea mays); [22]): 0
- Plant response rating, Rice (rice (Oryza saliva); [21]): 0
- Plant response rating, Rice (rice (Oryza saliva); [22]): 0
